The nature of data set [1]: Solubility and characteristics of the compounds in the dosing vehicle. Type of data set: physicochemical. Conditions: vehicle DMSO.
A further data set deals with P. cynomolgi sporozoites. Nature of the data set: Oral causal prophylactic assay in Rhesus monkey (compound 3 IM; 4b and 3c PO). The format is in vivo, Plasmodium cynomolgi. Conditions: per monkey. The procedure: To test the causal prophylactic intramuscular potency of the purified isomer of compound 3 and oral potency of two carbamate derivatives of 2-guanidinylimidazolidinedione (4b and 3c) the following assay was conducted.
Fourteen rhesus monkeys were issued.
A donor monkey was inoculated intravenously with 1.3 ml, freshly-thawed frozen infected red blood cell (DA310). When the monkey developed gametocytemia, mosquito feedings were conducted on days 15 and 16 after inoculation. The donor monkey was treated with intramuscular chloroquine hydrochloride (CQ) 10 mg/kg, once a day after the second mosquito feeding and continued for 6 days.
On day 0 of the beginning of the assay, each of the 14 monkeys was inoculated intravenously with 1-ml inoculum of suspension containing about 1.0×10^6 P. cynomolgi sporozoites harvested from Anopheles dirus mosquitoes' salivary glands previously fed on the donor monkey.
All monkeys received treatment on days −1, 0 and 1. The control monkeys (Group 1) received HECT orally and the experimental animals received testing compound intramuscularly (Groups 2 and 3) or orally (Groups 4 to 7).

The next data set has as its system Plasmodium yoelii (17×). The data set is described as follows: Sporozoite induced test in mouse (causal prophylactic activity). Type of data set: in vivo. The following applies: sporozoite challenged CD-1 mice; single dose 4 hours before inoculation; oral administration. The procedure:
The causal prophylactic antimalarial activity of the new carbamate derivatives were assessed in a sporozoites challenged mouse model according to the following protocol and the results are shown in Table 4 and Table 5.
Each compound was ground with a mortar and pestle and suspended in 0.5% hydroxyethylcellulose and 0.1% Tween 80 for compounds to be administered PO and those given SC were suspended in peanut oil. Each compound is prepared at 3 different dose levels.
Compounds were administered either PO or SC to mice once 4 hours before inoculation of sporozoites.
Four-week-old male CD-1 mice, purchased from Charles River and weighing about 16 to about 17 grams were placed 5 per cage and allowed to acclimate for 4 days before being treated and then inoculated with sporozoites. They were fed food and water ad-lib and maintained at 76° F. with 12 hour light and 12 hour darkness. The cages and water bottles were changed biweekly. The mice are weighed on Days 0, 3 and 6 then biweekly when blood films were taken.
Plasmodium yoelii (17×) was used to infect mice that will be used to infect the mosquitoes.
Mice were given a single dose of test compound 4 hours before being inoculated intraperitoneally with 2.5×10^5 sporozoites of Plasmodium yoelii on Day 0. Whole body weights were taken on Day 0 and Day 6 then twice a week for 31 days. A blood film was taken on Day 5 and then twice a week for 31 days. Mice loosing greater than about 20% of their body weight were sacrificed. All mice alive on Day 31 with no parasites in a blood film were considered cured. Donor mice used to infect the mosquitoes were infected with 2.5×10^4 parasitized erythrocytes. The mosquitoes were allowed to feed on these malaria-infected mice on Day 4 of their infection when the parasitemia was low.
A compound was considered active against either the sporozoite or the EE stage if no parasites were found in the blood films taken on Day 5 or on subsequent blood films taken weekly for 31 days.
Mice alive on Day 31 with no parasites found in any blood films were considered cured.

In a further data set the test system is Plasmodium falciparum. The following applies: cited from earlier work.
For the next data set, the system named is P. vivax. Conditions: cited from earlier work.

Values joined by “and” are separate entries in the source; they are usually repeats but may differ in a detail not shown here. Equal values may be shown once. “Also recorded” adds a separate entry of the source.

By melting point is commonly meant the temperature, or range, at which the solid turns liquid.

On to `CC(C)N1C(=O)C(=O)N=C1NC(=N)Nc1ccc(Cl)c(Cl)c1` [Compound 3, N-(3,4-dichlorophenyl)-N′-(1-isopropyl-4,5-dioxoimidazolidin-2-ylidene)guanidine], for which the melting point is 230 °C and 233 °C. Also, in data set [1] (dosage 10 mg/kg), the Sediment result is listed as “None”, the Solubility result is on record as “Good” and the Supernatant result is given as “Yellow clear”. In addition, in data set [1] (dosage 30 mg/kg), the Sediment entry was “None”, the Solubility entry is reported as “Moderate” and the Supernatant result was “Yellow turbid”. Besides, the “Day of Parasitemia” value in the data set on P. cynomolgi sporozoites (10 mg/kg IM) is 8 days. Moreover, the Result entry in the data set with P. cynomolgi sporozoites (10 mg/kg IM, 10 mg/kg) is “not protected; also recorded: No activity”. Besides, in the data set with P. cynomolgi sporozoites (30 mg/kg IM, 30 mg/kg), the “Day of Parasitemia” value is 15 days and 20 days; the “Result (delay the parasitemia)” value is 7 days and 12 days and did not completely protect the monkeys from malaria. The “Minimum Protective Dose Against P. yoelii” value in the data set on Plasmodium yoelii (17×) is >160 mg/kg.

`CC(C)NC(=NC(=O)OCc1ccccc1)N=C1NC(=O)C(=O)N1c1ccc(Cl)c(Cl)c1` [Compound 4d, N-[1-(3,4-dichlorophenyl)-4,5-dioxo-imidazolidin-2-ylidene]-N′-isopropyl-N″-(benzyloxycarbonyl)guanidine] yielded a melting point of 211 °C. In addition, the “Minimum Protective Dose Against P. yoelii” value with Plasmodium yoelii (17×) is given as 10 mg/kg.

Take `CC(C)NC(=N)NC(=N)Nc1ccc(Cl)c(Cl)c1` [chlorproguanil]: the “Activity against primary exoerythrocytic forms” value in the data set with Plasmodium falciparum and in the data set on P. vivax was “highly active” in each case.

Values taken from US7101902B2, “2-guanidinylimidazolidinedione compounds and methods of making and using thereof” (The United States of America as represented by the …, priority 2003, dated 2006).
